Data reported in patent US10077277B2, “Bicyclic heteroarylaminoalkyl phenyl derivatives as PI3K inhibitors” (Incyte Corporation, priority 2014, dated 2018).
Structures can show the parent of a compound that is named as a salt.

Legend:
Type in all cases: biochemical
[1] = biological target: human JAK2 (Homo sapiens (Human), UniProt O60674); assay: In vitro JAK kinase assay (Example J), JAK2; conditions: ratio of IC50s, Assay J at 1 mM ATP
[2] = biological target: human JAK1 (Homo sapiens, UniProt P23458); assay: In vitro JAK kinase assay (Example J), JAK1; conditions: Assay J at 1 mM ATP
[3] = biological target: PI3Kδ (p110δ/p85α) (Homo sapiens (Human), UniProt O00329); assay: PI3Kδ scintillation proximity assay (Example A3); conditions: Assay A3, 20 μM ATP
Description: Example A3: PI3Kδ Scintillation Proximity Assay
[γ-^33P]ATP (10 mCi/mL) was purchased from PerkinElmer (Waltham, Mass.). Lipid kinase substrate, D-myo-Phosphatidylinositol 4,5-bisphosphate (PtdIns(4,5)P2)D (+)-sn-1,2-di-O-octanoylglyceryl, 3-O-phospho linked (PIP2), CAS 204858-53-7, was purchased from Echelon Biosciences (Salt Lake City, Utah). PI3Kδ (p110δ/p85α) was purchased from Millipore (Bedford, Mass.). ATP, MgCl2, DTT, EDTA, MOPS and CHAPS were purchased from SigmaAldrich (St. Louis, Mo.). Wheat Germ Agglutinin (WGA) YSi SPA Scintillation Beads was purchased from GE healthcare life sciences (Piscataway, N.J.).
The kinase reaction was conducted in polystyrene 384-well matrix white plate from Thermo Fisher Scientific in a final volume of 25 μL. Inhibitors were first diluted serially in DMSO and added to the plate wells before the addition of other reaction components. The final concentration of DMSO in the assay was 0.5%. The PI3K assays were carried out at room temperature in 20 mM MOPS, pH 6.7, 10 mM MgCl2, 5 mM DTT and CHAPS 0.03%. Reactions were initiated by the addition of ATP, the final reaction mixture consisted of 20 μM PIP2, 20 μM ATP, 0.2 μCi [γ-^33P] ATP, 4 nM PI3Kδ. Reactions were incubated for 210 min and terminated by the addition of 40 μL SPA beads suspended in quench buffer: 150 mM potassium phosphate pH 8.0, 20% glycerol. 25 mM EDTA, 400 μM ATP. The final concentration of SPA beads was 1.0 mg/mL. After the plate sealing, plates were shaken overnight at room temperature and centrifuged at 1800 rpm for 10 minutes, the radioactivity of the product was determined by scintillation counting on Topcount (PerkinElmer). IC50 determination was performed by fitting the curve of percent control activity versus the log of the inhibitor concentration using the GraphPad Prism 3.0 software. IC50 data for the Examples is presented in Table 2 as determined by Assay A3.

PI3Kδ (p110δ/p85α), sequence (O00329 whole entry): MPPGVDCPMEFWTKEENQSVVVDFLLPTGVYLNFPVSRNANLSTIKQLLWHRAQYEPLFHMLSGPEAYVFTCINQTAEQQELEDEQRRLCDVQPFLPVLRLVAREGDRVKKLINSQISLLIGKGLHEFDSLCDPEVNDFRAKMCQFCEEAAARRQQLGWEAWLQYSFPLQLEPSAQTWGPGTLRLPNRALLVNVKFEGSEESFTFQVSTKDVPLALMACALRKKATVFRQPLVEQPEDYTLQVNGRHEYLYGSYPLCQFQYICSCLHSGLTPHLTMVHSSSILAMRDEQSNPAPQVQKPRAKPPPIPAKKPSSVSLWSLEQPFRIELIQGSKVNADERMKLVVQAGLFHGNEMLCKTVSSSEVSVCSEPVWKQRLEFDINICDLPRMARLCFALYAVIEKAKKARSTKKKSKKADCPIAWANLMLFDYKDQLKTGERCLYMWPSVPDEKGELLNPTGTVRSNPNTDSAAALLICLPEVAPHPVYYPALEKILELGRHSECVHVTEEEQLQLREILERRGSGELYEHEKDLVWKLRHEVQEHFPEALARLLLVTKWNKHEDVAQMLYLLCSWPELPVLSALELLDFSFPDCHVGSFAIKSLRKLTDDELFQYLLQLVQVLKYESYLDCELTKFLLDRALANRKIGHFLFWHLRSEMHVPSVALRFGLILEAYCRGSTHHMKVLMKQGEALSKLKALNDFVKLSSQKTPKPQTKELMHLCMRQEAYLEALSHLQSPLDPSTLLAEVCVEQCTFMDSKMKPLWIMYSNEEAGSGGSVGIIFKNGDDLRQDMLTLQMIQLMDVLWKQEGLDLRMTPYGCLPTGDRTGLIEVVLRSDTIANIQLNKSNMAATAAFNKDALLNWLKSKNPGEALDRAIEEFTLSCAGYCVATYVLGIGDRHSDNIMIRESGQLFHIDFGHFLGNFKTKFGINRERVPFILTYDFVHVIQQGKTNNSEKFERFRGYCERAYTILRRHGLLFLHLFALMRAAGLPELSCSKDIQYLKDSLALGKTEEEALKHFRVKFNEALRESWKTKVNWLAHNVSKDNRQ
PI3Kδ (p110δ/p85α), sequence (P27986 whole entry partner): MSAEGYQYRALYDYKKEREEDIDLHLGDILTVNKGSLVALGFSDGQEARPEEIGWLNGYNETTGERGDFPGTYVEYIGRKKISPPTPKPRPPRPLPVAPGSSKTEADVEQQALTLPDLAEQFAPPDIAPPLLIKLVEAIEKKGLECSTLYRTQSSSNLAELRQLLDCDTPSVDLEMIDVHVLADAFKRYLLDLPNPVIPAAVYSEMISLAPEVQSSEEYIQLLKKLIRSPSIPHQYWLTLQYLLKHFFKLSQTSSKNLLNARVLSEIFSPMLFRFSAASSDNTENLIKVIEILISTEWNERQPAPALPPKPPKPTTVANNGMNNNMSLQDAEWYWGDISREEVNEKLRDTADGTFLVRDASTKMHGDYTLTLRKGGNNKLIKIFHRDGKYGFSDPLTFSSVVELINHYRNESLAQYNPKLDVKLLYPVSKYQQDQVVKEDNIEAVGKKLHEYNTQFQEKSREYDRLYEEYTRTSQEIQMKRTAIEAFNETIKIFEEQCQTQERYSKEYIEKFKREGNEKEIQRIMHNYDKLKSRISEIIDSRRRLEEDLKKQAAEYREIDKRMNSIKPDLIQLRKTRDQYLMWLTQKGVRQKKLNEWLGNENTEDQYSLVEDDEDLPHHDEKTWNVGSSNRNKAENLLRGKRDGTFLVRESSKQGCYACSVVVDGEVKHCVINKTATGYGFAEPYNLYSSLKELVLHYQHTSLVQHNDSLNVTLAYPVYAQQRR
human JAK2, sequence (O60674 828-1132): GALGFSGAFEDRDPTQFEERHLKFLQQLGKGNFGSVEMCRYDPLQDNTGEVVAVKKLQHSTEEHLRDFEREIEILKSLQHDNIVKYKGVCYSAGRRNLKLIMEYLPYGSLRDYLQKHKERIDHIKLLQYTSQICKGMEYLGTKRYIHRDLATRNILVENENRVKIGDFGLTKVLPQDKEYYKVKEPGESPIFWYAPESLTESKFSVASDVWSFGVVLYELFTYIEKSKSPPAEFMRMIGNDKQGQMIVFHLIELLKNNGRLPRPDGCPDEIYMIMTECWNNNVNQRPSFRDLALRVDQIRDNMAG

JAK2/JAK1 [1]	IC50 [2]	SMILES	IC50 [3]
>10	< 0.01 µM	N#CC[C@]1(n2cc(-c3ncnc4[nH]ccc34)cn2)C[C@H](N2CCC(Oc3cc(CN4CCC[C@H]4CO)cc(C(F)(F)F)n3)CC2)C1 [Example 12]	
>10	< 0.01 µM	N#CC[C@]1(n2cc(-c3ncnc4[nH]ccc34)cn2)C[C@H](N2CCC(Oc3cc(CN4CC(O)C4)cc(C(F)(F)F)n3)CC2)C1 [Example 11]	
>10	< 0.01 µM	C[C@@H](CO)NCc1cc(OC2CCN([C@H]3C[C@](CC#N)(n4cc(-c5ncnc6[nH]ccc56)cn4)C3)CC2)nc(C(F)(F)F)c1 [Example 23]	
		CCOc1c(C(C)Nc2ncnc3scnc23)cc(Cl)c(F)c1C1CNC(=O)C1 (single isomer, unassigned) [Example 1B, 4-{3-chloro-6-ethoxy-2-fluoro-5-[1-([1,3]thiazolo[5,4-d]pyrimidin-7-ylamino)ethyl]phenyl}pyrrolidin-2-one]	0.1 to 0.4 µM
		CCOc1c([C@@H](C)Nc2ncnc3cccnc23)cc(Cl)c(F)c1[C@@H]1CNC(=O)C1 (single isomer, unassigned) [Example 2D, 4-{3-chloro-6-ethoxy-2-fluoro-5-[1-(pyrido[3,2-d]pyrimidin-4-ylamino)ethyl]phenyl}pyrrolidin-2-one]	0.1 to 0.4 µM
>10	< 0.01 µM	N#CCC1(n2cc(-c3ncnc4[nH]ccc34)cn2)CN([C@H]2CC[C@@H](Oc3cc(CN4CC[C@H](O)C4)cc(C(F)(F)F)n3)CC2)C1 [Example 22, {1-(cis-4-{[4-{[(3S)-3-hydroxypyrrolidin-1-yl]methyl}-6-(trifluoromethyl)pyridin-2-yl]oxy}cyclohexyl)-3-[4-(7H-pyrrolo[2,3-d]pyrimidin-4-yl)-1H-pyrazol-1-yl]azetidin-3-yl}acetonitrile]	
		CCOc1c(C(C)Nc2ncnc3cccnc23)cc(Cl)c(F)c1C1CNC(=O)C1 (stereo not shown) [Example 2, 4-{3-Chloro-6-ethoxy-2-fluoro-5-[1-(pyrido[3,2-d]pyrimidin-4-ylamino)ethyl]phenyl}pyrrolidin-2-one]	≤ 0.1 µM
>10	< 0.01 µM	C[C@H](O)CNCc1cc(OC2CCN([C@H]3C[C@](CC#N)(n4cc(-c5ncnc6[nH]ccc56)cn4)C3)CC2)nc(C(F)(F)F)c1 [Example 25]	
		CCOc1c(C(C)Nc2ncnc3scnc23)cc(Cl)c(F)c1C1CNC(=O)C1 (single isomer, unassigned) [Example 1D, 4-{3-chloro-6-ethoxy-2-fluoro-5-[1-([1,3]thiazolo[5,4-d]pyrimidin-7-ylamino)ethyl]phenyl}pyrrolidin-2-one]	0.1 to 0.4 µM
>10	< 0.01 µM	N#CCC1(n2cc(-c3ncnc4[nH]ccc34)cn2)CN([C@H]2CC[C@@H](Oc3cc(CCO)nc(C(F)(F)F)n3)CC2)C1 [Example 18, {1-(cis-4-{[6-(2-hydroxyethyl)-2-(trifluoromethyl)pyrimidin-4-yl]oxy}cyclohexyl)-3-[4-(7H-pyrrolo[2,3-d]pyrimidin-4-yl)-1H-pyrazol-1-yl]azetidin-3-yl}acetonitrile]	
>10	< 0.01 µM	N#CC[C@]1(n2cc(-c3ncnc4[nH]ccc34)cn2)C[C@H](N2CCN(C(=O)c3ccnc(C(F)(F)F)n3)CC2)C1 [Example 10]	
>10	< 0.01 µM	CCNCc1cc(O[C@H]2CC[C@@H](N3CC(CC#N)(n4cc(-c5ncnc6[nH]ccc56)cn4)C3)CC2)nc(C(F)(F)F)c1 [Example 19, {1-(cis-4-{[4-[(ethylamino)methyl]-6-(trifluoromethyl)pyridin-2-yl]oxy}cyclohexyl)-3-[4-(7H-pyrrolo[2,3-d]pyrimidin-4-yl)-1H-pyrazol-1-yl]azetidin-3-yl}acetonitrile]	
>10	< 0.01 µM	N#CCC1(n2cc(-c3ncnc4[nH]ccc34)cn2)CN(C2CCN(C(=O)Nc3ccc(F)cc3C(F)(F)F)CC2)C1 [Example 8, 4-{3-(Cyanomethyl)-3-[4-(7H-pyrrolo[2,3-d]pyrimidin-4-yl)-1H-pyrazol-1-yl]azetidin-1-yl}-N-[4-fluoro-2-(trifluoromethyl)phenyl]piperidine-1-carboxamide]	
		CCOc1c([C@@H](C)Nc2ncnc3cccnc23)cc(Cl)c(F)c1[C@@H]1CNC(=O)C1 (single isomer, unassigned) [Example 2B, 4-{3-chloro-6-ethoxy-2-fluoro-5-[1-(pyrido[3,2-d]pyrimidin-4-ylamino)ethyl]phenyl}pyrrolidin-2-one]	0.1 to 0.4 µM
>10	< 0.01 µM	N#CCC1(n2cc(-c3ncnc4[nH]ccc34)cn2)CN([C@H]2CC[C@@H](Oc3cc(CN4CC[C@@H](O)C4)cc(C(F)(F)F)n3)CC2)C1 [Example 21]	
>10	< 0.01 µM	N#CC[C@]1(n2cc(-c3ncnc4[nH]ccc34)cn2)C[C@H](N2CCC(Oc3cc(CN4CCC[C@@H]4CO)cc(C(F)(F)F)n3)CC2)C1 [Example 13]	
>10	< 0.01 µM	C[C@@H](O)CNCc1cc(OC2CCN([C@H]3C[C@](CC#N)(n4cc(-c5ncnc6[nH]ccc56)cn4)C3)CC2)nc(C(F)(F)F)c1 [Example 24]	
>10	< 0.01 µM	CC(C)(O)c1cc(O[C@H]2CC[C@@H](N3CC(CC#N)(n4cc(-c5ncnc6[nH]ccc56)cn4)C3)CC2)nc(C(F)(F)F)c1 [Example 20, {1-(cis-4-{[4-(1-hydroxy-1-methylethyl)-6-(trifluoromethyl)pyridin-2-yl]oxy}cyclohexyl)-3-[4-(7H-pyrrolo[2,3-d]pyrimidin-4-yl)-1H-pyrazol-1-yl]azetidin-3-yl}acetonitrile]	
>10	< 0.01 µM	C[C@H](NC(=O)c1cc(F)c(N2CC(CC#N)(n3cc(-c4ncnc5[nH]ccc45)cn3)C2)cc1F)C(F)(F)F [Example 16]	
>10	< 0.01 µM	N#CC[C@]1(n2cc(-c3ncnc4[nH]ccc34)cn2)C[C@H](N2CCC(Oc3cc(CCO)cc(C(F)(F)F)n3)CC2)C1 [Example 26]	
>10	< 0.01 µM	N#CCC1(n2cc(-c3ncnc4[nH]ccc34)cn2)CN(C2CCN(C(=O)c3ccnc(C(F)(F)F)n3)CC2)C1 [Example 9, [3-[4-(7H-pyrrolo[2,3-d]pyrimidin-4-yl)-1H-pyrazol-1-yl]-1-(1-{[2-(trifluoromethyl)pyrimidin-4-yl]carbonyl}piperidin-4-yl)azetidin-3-yl]acetonitrile]	
>10	< 0.01 µM	N#CCC1(n2cc(-c3ncnc4[nH]ccc34)cn2)CN(C2CCN(C(=O)c3ccnc(C(F)(F)F)c3F)CC2)C1 [Example 7, {1-{1-[3-Fluoro-2-(trifluoromethyl)isonicotinoyl]piperidin-4-yl}-3-[4-(7H-pyrrolo[2,3-d]pyrimidin-4-yl)-1H-pyrazol-1-yl]azetidin-3-yl}acetonitrile]	
>10	< 0.01 µM	N#CCC(C1CCN(c2cccc(Cl)n2)C1)n1cc(-c2ncnc3[nH]ccc23)cn1 (stereo not shown) [bis(trifluoroacetate)]	

SMILES	JAK2/JAK1 [1]	IC50 [2]	IC50 [3]
N#CCC(CN1CCN(C(=O)c2ccc(C#N)cc2F)CC1)n1cc(-c2ncnc3[nH]ccc23)cn1 (stereo not shown) [Example 6]	>10		
CCOc1c(C(C)Nc2ncnc3scnc23)cc(Cl)c(F)c1C1CNC(=O)C1 (stereo not shown) [Example 1, 4-{3-Chloro-6-ethoxy-2-fluoro-5-[1-([1,3]thiazolo[5,4-d]pyrimidin-7-ylamino)ethyl]phenyl}pyrrolidin-2-one trifluoroacetate]	>10		≤ 0.1 µM
N#CCC(CN1CCN(C(=O)c2ccc(C#N)cc2F)CC1)n1cc(-c2ncnc3[nH]ccc23)cn1 (stereo not shown) [Example 5]	>10	< 0.01 µM	
